Here are results for five compounds from ChEMBL document CHEMBL5634163, “Anti-Ferroptotic Effect of Cannabidiol in Human Skin Keratinocytes Characterized by Data-Independent Acquisition-Based Proteomics” (J Nat Prod, 2024).

In test [1] the test system is HaCaT. In words: Anti-ferroptotic effect against erastin-induced cytotoxicity in human HaCaT cells assessed as cell viability at 10 uM preincubated for 4 hrs followed by erastin addition measured after 24 hrs by MTT assay (reference value: 23 %). Format: functional. The following applies: time 28 hrs, read-out: Activity.
A short description of test [2]: Antioxidant activity assessed as free radical scavenging activity at 100 uM incubated for 30 mins in dark by DPPH assay relative to control. In kind it is functional.
Test [3] relates to HaCaT. Put plainly: Anti-ferroptotic effect against erastin-induced cytotoxicity in human HaCaT cells assessed as cell viability at 10 uM preincubated for 4 hrs followed by erastin addition measured after 24 hrs by MTT assay relative to control. Particulars: for Activity: time 28.0 hrs; for viability at 10 µM: time 28 hrs, read-out: Activity. Format: functional. (In general: Formazan colour is commonly taken as a measure of viable cells.)

Test [4] can be described thus: Iron-chelating activity of compound at 500 uM incubated for 10 mins by absorbance based assay relative to control. In kind it is functional.
Test [5] is described as follows: Antioxidant activity assessed as free radical scavenging activity incubated for 30 mins in dark by DPPH assay. Format: functional. A general note: Loss of DPPH colour is used to gauge radical scavenging.
The test system of test [6] is HaCaT. In words: Suppression of erastin-induced intracellular Fe2+ level in human HaCaT cells at 2.5 uM preincubated for 24 hrs followed by erastin addition measured after 24 hrs by FerroOrange probe based assay (reference value: 25 %). The following applies: time 48 hrs. In kind it is functional.
Test [7] has as its system HaCaT. Put plainly: Reversal of erastin-induced lipid peroxidation in human HaCaT cells at 0.6 uM preincubated for 4 hrs followed by erastin addition measured after 24 hrs by flow cytometry (reference value: 47 %). Format: functional. The following applies: time 28 hrs.
For test [8], the system named is HaCaT. In words: Anti-ferroptotic effect against erastin-induced cytotoxicity in human HaCaT cells assessed as cell viability at 0.16 uM preincubated for 4 hrs followed by erastin addition measured after 24 hrs by MTT assay (reference value: 23 %). In kind it is functional. Particulars: time 28 hrs, read-out: Activity.
Test [9] has as its system HaCaT. In words: Anti-ferroptotic effect against erastin-induced cytotoxicity in human HaCaT cells assessed as cell viability at 2.5 uM preincubated for 4 hrs followed by erastin addition measured after 24 hrs by MTT assay (reference value: 23 %). Format: functional. Particulars: time 28 hrs, read-out: Activity.
Test [10] deals with HaCaT. Put plainly: Reversal of erastin-reduced CSNK2B level in human HaCaT cells. Format: functional, cell-based.
In test [11] the test system is HaCaT. In words: Reversal of erastin-induced FXR2 level in human HaCaT cells. In kind it is functional, cell-based.
Test [12] relates to HaCaT. In words: Anti-ferroptotic effect against erastin-induced cytotoxicity in human HaCaT cells assessed as cell viability at 1.25 uM preincubated for 4 hrs followed by erastin addition measured after 24 hrs by MTT assay (reference value: 23 %). Particulars: time 28 hrs, read-out: Activity. Format: functional.
For test [13], the system named is HaCaT. Put plainly: Reversal of erastin-induced ROS level in human HaCaT cells at 0.6 uM preincubated for 24.5 hrs followed by erastin addition measured after 4 hrs by DC-FDA probe based assay (reference value: 23 %). Format: functional. The following applies: time 28.5 hrs.
Test [14] deals with HaCaT. In words: Reversal of erastin-induced lipid peroxidation in human HaCaT cells at 10 uM preincubated for 4 hrs followed by erastin addition measured after 24 hrs by flow cytometry (reference value: 47 %). The following applies: time 28 hrs. Format: functional. Background: In flow cytometry, cells or beads pass a laser one at a time.
Test [15] deals with HaCaT. In words: Reversal of erastin-induced lipid peroxidation in human HaCaT cells at 2.5 uM preincubated for 4 hrs followed by erastin addition measured after 24 hrs by flow cytometry (reference value: 47 %). Format: functional. The following applies: time 28 hrs.
Test [16] deals with HaCaT. Put plainly: Suppression of erastin-induced intracellular Fe2+ level in human HaCaT cells at 0.6 uM preincubated for 24 hrs followed by erastin addition measured after 24 hrs by FerroOrange probe based assay (reference value: 25 %). In kind it is functional. Particulars: time 48 hrs.
The subject of test [17] is HaCaT. In words: Anti-ferroptotic effect against erastin-induced cytotoxicity in human HaCaT cells assessed as cell viability at 0.08 uM preincubated for 4 hrs followed by erastin addition measured after 24 hrs by MTT assay (reference value: 23 %). Format: functional. Particulars: time 28 hrs, read-out: Activity.
In test [18] the test system is HaCaT. Put plainly: Reversal of erastin-induced ROS level in human HaCaT cells at 2.5 uM preincubated for 24.5 hrs followed by erastin addition measured after 4 hrs by DC-FDA probe based assay (reference value: 23 %). Format: functional. Particulars: time 28.5 hrs.
Test [19] has as its system HaCaT. Put plainly: Anti-ferroptotic effect against erastin-induced cytotoxicity in human HaCaT cells assessed as cell viability at 0.31 uM preincubated for 4 hrs followed by erastin addition measured after 24 hrs by MTT assay (reference value: 23 %). In kind it is functional. Particulars: time 28 hrs, read-out: Activity.
Test [20] relates to HaCaT. Put plainly: Reversal of erastin-reduced LGALS3 level in human HaCaT cells. In kind it is functional, cell-based.
Test [21] deals with HaCaT. Put plainly: Reversal of erastin-induced iron level in human HaCaT cells at 2.5 uM preincubated for 24 hrs followed by erastin addition measured after 24 hrs by FerroOrange probe based assay (reference value: 43 %). Format: functional. The following applies: time 48 hrs.
For test [22], the system named is HaCaT. In words: Anti-ferroptotic effect against erastin-induced cytotoxicity in human HaCaT cells assessed as cell viability at 5 uM preincubated for 4 hrs followed by erastin addition measured after 24 hrs by MTT assay (reference value: 23 %). Particulars: time 28 hrs, read-out: Activity. In kind it is functional.
Test [23] deals with HaCaT. In words: Anti-ferroptotic effect against erastin-induced cytotoxicity in human HaCaT cells assessed as cell viability at 0.63 uM preincubated for 4 hrs followed by erastin addition measured after 24 hrs by MTT assay (reference value: 23 %). In kind it is functional. The following applies: time 28 hrs, read-out: Activity.
The subject of test [24] is HaCaT. In words: Reversal of erastin-induced DDX60 level in human HaCaT cells. In kind it is functional, cell-based.
Test [25] has as its system HaCaT. In words: Reversal of erastin-induced LIG3 level in human HaCaT cells. Format: functional, cell-based.
Test [26] has as its system HaCaT. Put plainly: Reversal of erastin-induced ROS level in human HaCaT cells at 10 uM preincubated for 24.5 hrs followed by erastin addition measured after 4 hrs by DC-FDA probe based assay (reference value: 23 %). In kind it is functional. The following applies: time 28.5 hrs.
Test [27] deals with HaCaT. Put plainly: Reversal of erastin-induced iron level in human HaCaT cells at 10 uM preincubated for 24 hrs followed by erastin addition measured after 24 hrs by FerroOrange probe based assay (reference value: 43 %). In kind it is functional. The following applies: time 48 hrs.
The test system of test [28] is HaCaT. In words: Reversal of erastin-reduced RPL7A level in human HaCaT cells. In kind it is functional, cell-based.
The subject of test [29] is HaCaT. Put plainly: Effect on GSH level in human HaCaT cells at 2.5 uM. Format: functional, cell-based.
In test [30] the test system is HaCaT. Put plainly: Suppression of erastin-induced intracellular Fe2+ level in human HaCaT cells at 10 uM preincubated for 24 hrs followed by erastin addition measured after 24 hrs by FerroOrange probe based assay (reference value: 25 %). Format: functional. Particulars: time 48 hrs.

pIC50: −log10 of the molar value. Active and inactive are the calls of the source. The calls are words filed in the database; no cut-off is given here.

For `CCOC(=O)c1ccc(NC2CCCCC2)c(N)c1`, the viability at 10 µM in [1] is 66%.
In the case of `CC1=C(/C=C/C(C)=C/C=C/C(C)=C/CO)C(C)(C)CCC1`, the results for the Activity in test [2] and in test [4] were 18% and 87%, respectively. For the same compound, the result in test [3] was inactive.
Consider `O=C1O[C@H]([C@@H](O)CO)C(O)=C1O` [ASCORBIC ACID], for which the pIC50 in test [5] is 4.80. In test [3], the result was inactive. Further, in [4], the Activity is less than 5%.
For `C=C(C)[C@@H]1CCC(C)=C[C@H]1c1c(O)cc(CCCCC)cc1O` [CANNABIDIOL], the Activity is 12% in test [6]; 39% in test [7]; 10% in [13]; 40% in [14]; 44% in [15]; 10% in test [16]. Also, the Activity in test [18] was 14%; in test [21], 15%; in test [26], 26%; in test [4] it was less than 5%; in test [27] it was 17%. Further, the viability at 0.16 µM in test [8] stood at 36%. Moreover, the viability at 2.5 µM in [9] is 74%. Further, the result in [10], in test [11], in test [20], in [24], in test [25] and in test [28] was Active. Besides, the pIC50 in [5] was 4.48. For the same compound, the viability at 1.25 µM in test [12] was 67%. Besides, the viability at 0.08 µM in [17] came to 29%. Moreover, the viability at 0.31 µM in [19] came out at 45%. In test [22], the viability at 5 µM was 71%. For the same compound, in test [23], the viability at 0.63 µM came out at 52%. Moreover, the figures for the viability at 10 µM in [3] and in [1] were 76% and 68%, respectively. Moreover, the outcome in [29] was inactive.
`O=c1c(O)c(-c2ccc(O)c(O)c2)oc2cc(O)ccc12` [FISETIN]: the Activity worked out at 32% in test [30]; 40% in test [14]; 11% in test [26]; 60% in [4]; 14% in [27]. In addition, the pIC50 in [5] was 5.00. Moreover, the viability at 10 µM in test [3] turned out to be 37%.

Broadly, the pIC50 is the negative decadic logarithm of the IC50, by convention in mol/L.
